# In patent US8912121B2, “Herbicidal compositions comprising 4-amino-3-chloro-5-fluoro-6-(4-chloro-2-fluoro-3-methoxyphenyl)pyridine-2-carboxylic acid or a derivative thereof and certain PS II inhibitors” (Dow Agrosciences LLC, priority 2012, dated 2014):
# How the values were obtained:
# [1] = tested on: SINAR (Sinapis arvensis, wild mustard); experiment: Postemergence herbicidal activity of mixtures in cereal crops, greenhouse; assay type: in vivo, Sinapis arvensis L.
# Description: (§1) Seeds of the desired test plant species were planted in Sun Gro MetroMix® 306 planting mixture, which typically has a pH of 6.0 to 6.8 and an organic matter content of about 30 percent, in plastic pots with a surface area of 103.2 square centimeters (cm^2). When required to ensure good germination and healthy plants, a fungicide treatment and/or other chemical or physical treatment was applied. The plants were grown for 7-36 days in a greenhouse with an approximate 14 hour photoperiod which was maintained at about 18° C. during the day and about 17° C. during the night. Nutrients and water were added on a regular basis and supplemental lighting was provided with overhead metal halide 1000-Watt lamps as necessary. The plants were employed for testing when they reached the second or third true leaf stage.
# (§2) Treatments consisted of the benzyl ester of 4-amino-3-chloro-5-fluoro-6-(4-chloro-2-fluoro-3-methoxy-phenyl)pyridine-2-carboxylic acid (Compound A), formulated as an SC, a second cereal herbicide alone and then both in combination.
# (§3) Other herbicidal components were applied on an active ingredient basis and included PSII-inhibiting herbicides.
# (§4) Measured aliquots of benzyl ester of 4-amino-3-chloro-5-fluoro-6-(4-chloro-2-fluoro-3-methoxy-phenyl)pyridine-2-carboxylic acid (Compound A) were placed in 25 milliliter (mL) glass vials and diluted in a volume of 1.25% (v/v) Agri-Dex® crop oil concentrate to obtain stock solutions. Compound requirements are based upon a 12 mL application volume at a rate of 187 liters per hectare (L/ha). Spray solutions of the second cereal herbicide and experimental compound mixtures were prepared by adding the stock solutions to the appropriate amount of dilution solution to form 12 mL spray solution with active ingredients in two- and three-way combinations. Formulated compounds were applied to the plant material with an overhead Mandel track sprayer equipped with an 8002E nozzle calibrated to deliver 187 L/ha over an application area of 0.503 square meters (m^2) at a spray height of 18 inches (46 cm) above average plant canopy. Control plants were sprayed in the same manner with the solvent blank.
# (§5) The treated plants and control plants were placed in a greenhouse as described above and watered by sub-irrigation to prevent wash-off of the test compounds. After 20-22 days, the condition of the test plants as compared with that of the control plants was determined visually and scored on a scale of 0 to 100 percent where 0 corresponds to no injury and 100 corresponds to complete kill.
# (§6) Colby's equation was used to determine the herbicidal effects expected from the mixtures (Colby, S. R. 1967. Calculation of the synergistic and antagonistic response of herbicide combinations. Weeds 15:20-22).
# (§7) The following equation was used to calculate the expected activity of mixtures containing two active ingredients, A and B: Expected=A+B−(A×B/100)
# [2] = tested on: SASKR (Salsola tragus, Russian thistle); experiment: as above; assay type: in vivo, Salsola tragus L.
# Description: as §1, §2, §3, §4, §5, §6, §7
# [3] = tested on: SETVI (Setaria viridis, green foxtail); experiment: Pre-emergence soil-applied mixtures, greenhouse; assay type: in vivo, Setaria viridis (L.) Beauv.
# Text: Seeds or nutlets of the desired test plant species were planted in a soil matrix prepared by mixing a loam soil (32 percent silt, 23 percent clay, and 45 percent sand, with a pH of about 6.5 and an organic matter content of about 1.9 percent) and calcareous grit in an 80 to 20 ratio. The soil matrix was contained in plastic pots with a volume of 1 quart and a surface area of 83.6 square centimeters (cm^2).
# Treatments consisted of the benzyl ester of 4-amino-3-chloro-5-fluoro-6-(4-chloro-2-fluoro-3-methoxy-phenyl)pyridine-2-carboxylic acid (compound A) formulated as an SC (suspension concentrate) and various herbicidal components alone and in combination. Forms of compound A were applied on an acid equivalent basis.
# Other herbicidal components were applied on an acid equivalent or active ingredient basis and included the PSII-inhibiting herbicides, atrazine formulated as Atrazine® 90WDG, metribuzin formulated as Metribuzin 75DF, simazine formulated as Princep Caliber 90, tebuthiuron formulated as Spike 80DF, cyanazine (technical grade material), hexazinone (technical grade material), linuron (technical grade material), terbuthylazine (technical grade material), and diuron formulated as Diuron 4L.
# Treatment requirements were calculated based upon the rates being tested, the concentration of active ingredient or acid equivalent in the formulation, and a 12 mL application volume at a rate of 187 L/ha.
# For treatments comprised of formulated compounds, measured amounts of compounds were placed individually in 25 mL glass vials and diluted in a volume of 1.25% (v/v) Agri-Dex® crop oil concentrate (COC) to obtain 12× stock solutions. […]
# For treatments comprised of formulated and technical compounds, weighed amounts of the technical materials can be placed individually in 25 mL glass vials and dissolved in a volume of 97:3 (v/v) acetone/DMSO to obtain 12× stock solutions, and measured amounts of the formulated compounds can be placed individually in 25 mL glass vials and diluted in a volume of 1.5% (v/v) COC or water to obtain 12× stock solutions. […]
# [4] = tested on: VERPE (Veronica persica, Persian speedwell); experiment: Postemergence herbicidal activity of mixtures in cereal crops, greenhouse; assay type: in vivo, Veronica persica Poir.
# Description: as §1, §2, §3, §4, §5, §6, §7
# [5] = Compound A Benzyl Ester 5 g ai/ha
# [6] = Compound A Benzyl Ester 10 g ai/ha
structure (smiles),measurement,setting,value
"COc1c(Cl)ccc(-c2nc(C(=O)OCc3ccccc3)c(Cl)c(N)c2F)c1F [Compound A Benzyl Ester, benzyl ester of 4-amino-3-chloro-5-fluoro-6-(4-chloro-2-fluoro-3-methoxy-phenyl)pyridine-2-carboxylic acid]",Visual Weed Control (%)-21 DAA SINAR Obs,"[1]; Compound A Benzyl Ester 2.5 g ai/ha, Table 21",70%
same,Visual Weed Control (%)-21 DAA SINAR Obs,"[1]; Compound A Benzyl Ester 2.5 g ai/ha, Table 22",70%
same,Visual Weed Control (%)-21 DAA SINAR Obs,"[1]; Compound A Benzyl Ester 5 g ai/ha, Table 21",73%
same,Visual Weed Control (%)-21 DAA SINAR Obs,"[1]; Compound A Benzyl Ester 5 g ai/ha, Table 22",73%
same,Visual Weed Control (%)-21 DAA SASKR Obs,[2]; Compound A Benzyl Ester 2.5 g ai/ha,15%
same,Visual Weed Control (%)-21 DAA SASKR Obs,[2]; [5],50%
same,Visual Weed Control (%)-21 DAA SASKR Obs,[2]; [6],67%
same,Visual Weed Control (%)-29 DAA SETVI Obs,[3]; Compound A Benzyl Ester 16 g ae/ha,10%
same,Visual Weed Control (%)-29 DAA SETVI Obs,[3]; Compound A Benzyl Ester 32 g ae/ha,10%
same,Visual Weed Control (%) - 21 DAA VERPE Obs,[4]; [5],17%
same,Visual Weed Control (%) - 21 DAA VERPE Obs,[4]; [6],23%
